The test system of one data set is dipeptidyl peptidase 4. As to conditions: cited from earlier work. The source says: GLP-2R belongs to class B GPCR subfamily, which is mainly expressed in the gut, pancreas and brain.[1] […] GLP-2 is encoded by the proglucagon gene and becomes active after post-translational processing by prohormone convertases. As a gastrointestinal hormone, it mainly regulates intestinal epithelial cell growth and functions that are crucial for digestion and absorption of nutrients.[2]

The target of the next data set is T1, GLP-2R Y182^1.43A (Homo sapiens, UniProt O95838, Y182A).
T1 sequence (O95838 1-553 Y182A): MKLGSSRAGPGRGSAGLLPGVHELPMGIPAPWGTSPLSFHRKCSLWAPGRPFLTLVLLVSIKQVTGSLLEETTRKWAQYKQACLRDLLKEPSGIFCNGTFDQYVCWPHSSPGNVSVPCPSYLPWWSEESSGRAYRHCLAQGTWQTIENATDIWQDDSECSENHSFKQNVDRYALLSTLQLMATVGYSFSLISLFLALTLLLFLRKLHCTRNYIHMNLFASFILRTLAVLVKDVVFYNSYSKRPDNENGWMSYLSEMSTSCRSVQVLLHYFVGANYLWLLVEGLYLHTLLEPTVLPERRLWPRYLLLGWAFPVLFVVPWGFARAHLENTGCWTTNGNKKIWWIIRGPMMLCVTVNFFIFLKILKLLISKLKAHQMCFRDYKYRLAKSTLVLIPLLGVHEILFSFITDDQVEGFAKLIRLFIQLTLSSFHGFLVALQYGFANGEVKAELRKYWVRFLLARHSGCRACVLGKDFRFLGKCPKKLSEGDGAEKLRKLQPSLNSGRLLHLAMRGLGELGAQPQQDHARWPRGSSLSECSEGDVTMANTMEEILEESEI
As to the kind of experiment: cAMP accumulation, Y182^1.43A. The data set is classed as cell-based. Also noted: WT (1–553); expressed in transfected cells; HEK 293T (cAMP). As to conditions: Table S3, Y182A; HEK 293T, 30 min, RT; mean ± SEM, n ≥ 3 in duplicate; read-out: cAMP Emax (% WT). How it is done: (§1) HEK 293T cells were cultured in Dulbecco’s Modified Eagle’s Medium (DMEM) (Gibco, Waltham, USA) supplemented with 10% (v/v) fetal bovine serum (FBS) (Gibco) and 1% (v/v) sodium pyruvate (Gibco) at 37 °C, 5% CO2 in a humidified incubator. They were seeded onto 6-well cell culture plates and transiently transfected with different GLP-2R constructs using Lipofectamine 2000 transfection reagent (Invitrogen, Carlsbad, CA, USA). After 24 h, the transfected cells were seeded onto 384-well microtiter plates (3000 cells per well) in HBSS supplemented with 5 mM HEPES, 0.1% (w/v) bovine serum albumin (BSA) and 0.5 mM 3-isobutyl-1- methylxanthine, and stimulated with increasing concentrations of GLP-2 for 30 min at RT. Eu and Ulight were diluted by cAMP detection buffer and added to the plates separately to terminate the reaction. Plates were incubated at RT for 60 min before measuring the fluorescence intensity at 620 nm and […] by an EnVision multilabel plate reader (PerkinElmer, Boston, USA).
In general terms: Changes in cAMP serve as a functional read-out for many G protein-coupled receptors.

For a further data set, the target named is T2, GLP-2R Y186^1.47A (Homo sapiens, UniProt O95838, Y186A).
T2 sequence (O95838 1-553 Y186A): T1 sequence (O95838 1-553 Y182A) with A182Y, Y186A
Briefly: cAMP accumulation, Y186^1.47A. To be noted: Table S3, Y186A; HEK 293T, 30 min, RT; mean ± SEM, n ≥ 3 in duplicate; read-out: cAMP Emax (% WT). Further details: WT (1–553); expressed in transfected cells; HEK 293T (cAMP). It is filed as cell-based. How it is done: as §1

The next data set has as its target T3, GLP-2R W340^5.36A (Homo sapiens, UniProt O95838, W340A).
T3 sequence (O95838 1-553 W340A): T1 sequence (O95838 1-553 Y182A) with A182Y, W340A
Briefly: cAMP accumulation, W340^5.36A. The data set is classed as cell-based. Further details: WT (1–553); expressed in transfected cells; HEK 293T (cAMP). As to conditions: Table S3, W340A; HEK 293T, 30 min, RT; mean ± SEM, n ≥ 3 in duplicate; read-out: cAMP Emax (% WT). How it is done:
as §1

Changes are numbered by the printed parent chain.

One may read the Emax as the greatest response seen or fitted, relative to the assay's reference. For the molecule `CC[C@H](C)[C@H](NC(=O)[C@H](Cc1ccccc1)NC(=O)[C@H](CC(=O)O)NC(=O)[C@H](CCCNC(=N)N)NC(=O)[C@H](C)NC(=O)[C@H](C)NC(=O)[C@H](CC(C)C)NC(=O)[C@H](CC(N)=O)NC(=O)[C@H](CC(=O)O)NC(=O)[C@H](CC(C)C)NC(=O)[C@@H](NC(=O)[C@@H](NC(=O)[C@H](CC(N)=O)NC(=O)[C@H](CCSC)NC(=O)[C@H](CCC(=O)O)NC(=O)[C@H](CC(=O)O)NC(=O)[C@H](CO)NC(=O)[C@H](Cc1ccccc1)NC(=O)[C@H](CO)NC(=O)CNC(=O)[C@H](CC(=O)O)NC(=O)[C@H](C)NC(=O)[C@@H](N)Cc1c[nH]cn1)[C@@H](C)O)[C@@H](C)CC)C(=O)N[C@@H](CC(N)=O)C(=O)N[C@@H](Cc1c[nH]c2ccccc12)C(=O)N[C@@H](CC(C)C)C(=O)N[C@H](C(=O)N[C@@H](CCC(N)=O)C(=O)N[C@H](C(=O)N[C@@H](CCCCN)C(=O)N[C@H](C(=O)N[C@H](C(=O)N[C@@H](CC(=O)O)C(=O)O)[C@@H](C)O)[C@@H](C)CC)[C@@H](C)O)[C@@H](C)CC` [Human GLP-2 (1–33)], in the data set with dipeptidyl peptidase 4, the “inactivation by dipeptidyl peptidase 4 in vivo (in words)” value is recorded as “rapidly inactivated by dipeptidyl peptidase 4 in vivo”. Also, the Emax at GLP-2R Y182^1.43A is 102 ± 3.9%; at GLP-2R Y186^1.47A, 100 ± 2.8%; at GLP-2R W340^5.36A, 107 ± 3.6%.
